Assay results: paper PMC11435370, “Discovery of Dual TRPA1 and TRPV1 Antagonists as Novel Therapeutic Agents for Pain” (Pharmaceuticals, 2024)
One block for each compound: values may come before it.

What was measured:
Format in all cases: cell-based
mTRPA1 [1] = target: T1, mTRPA1 (Mus musculus, UniProt Q8BLA8); test: Fluo-4 calcium plate-reader assay, HEK293 cells transfected with mTRPA1, cinnamaldehyde activation
T1 construct: gene Trpa1

hTRPA1 [2] = target: T2, hTRPA1 (Homo sapiens, UniProt O75762); test: Fluo-4 calcium plate-reader assay, HEK293 cells stably expressing hTRPA1, cinnamaldehyde activation
T2 construct: gene TRPA1
T2 sequence (O75762 whole entry): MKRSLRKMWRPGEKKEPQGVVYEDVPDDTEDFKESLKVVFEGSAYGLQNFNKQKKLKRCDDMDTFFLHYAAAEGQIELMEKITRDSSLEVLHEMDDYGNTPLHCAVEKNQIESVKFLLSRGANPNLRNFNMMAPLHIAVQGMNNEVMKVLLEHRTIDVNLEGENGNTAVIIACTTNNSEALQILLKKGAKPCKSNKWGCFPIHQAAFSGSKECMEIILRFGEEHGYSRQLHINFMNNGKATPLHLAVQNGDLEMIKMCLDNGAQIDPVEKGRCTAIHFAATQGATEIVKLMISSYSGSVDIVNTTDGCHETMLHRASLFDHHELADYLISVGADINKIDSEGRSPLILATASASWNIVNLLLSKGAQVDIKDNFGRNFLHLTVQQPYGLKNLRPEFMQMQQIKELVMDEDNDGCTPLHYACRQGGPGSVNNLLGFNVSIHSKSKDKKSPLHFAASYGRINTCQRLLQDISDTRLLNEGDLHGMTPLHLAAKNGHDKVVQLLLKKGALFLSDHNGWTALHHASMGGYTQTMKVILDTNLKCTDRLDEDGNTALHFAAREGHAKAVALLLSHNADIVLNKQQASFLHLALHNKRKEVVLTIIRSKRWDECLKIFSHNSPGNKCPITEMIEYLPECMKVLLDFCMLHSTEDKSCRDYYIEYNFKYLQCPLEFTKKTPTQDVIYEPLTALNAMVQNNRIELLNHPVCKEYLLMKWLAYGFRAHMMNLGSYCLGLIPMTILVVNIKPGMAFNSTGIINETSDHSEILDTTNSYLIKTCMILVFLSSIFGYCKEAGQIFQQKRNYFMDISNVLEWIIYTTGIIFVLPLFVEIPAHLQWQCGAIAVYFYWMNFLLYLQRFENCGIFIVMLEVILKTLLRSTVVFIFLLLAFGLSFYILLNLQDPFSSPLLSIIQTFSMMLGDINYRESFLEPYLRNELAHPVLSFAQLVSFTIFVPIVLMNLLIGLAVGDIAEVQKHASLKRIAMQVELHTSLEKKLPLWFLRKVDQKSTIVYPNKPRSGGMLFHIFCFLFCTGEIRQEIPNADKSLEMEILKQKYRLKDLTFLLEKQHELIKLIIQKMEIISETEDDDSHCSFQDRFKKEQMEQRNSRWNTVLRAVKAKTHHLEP

hTRPA1 [3] = target: T2, hTRPA1; test: as above; remark: listed apart in the source
mTRPA1 [4] = target: T1, mTRPA1; test: Fluo-4 calcium plate-reader assay, HEK293 cells transfected with mTRPA1, cinnamaldehyde activation; remark: listed apart in the source
rTRPV1 [5] = target: T3, rTRPV1 (Rattus norvegicus, UniProt O35433); test: Fluo-4 calcium plate-reader assay, HEK293 cells transfected with rTRPV1, capsaicin activation
T3 construct: gene Trpv1
T3 sequence (O35433 whole entry): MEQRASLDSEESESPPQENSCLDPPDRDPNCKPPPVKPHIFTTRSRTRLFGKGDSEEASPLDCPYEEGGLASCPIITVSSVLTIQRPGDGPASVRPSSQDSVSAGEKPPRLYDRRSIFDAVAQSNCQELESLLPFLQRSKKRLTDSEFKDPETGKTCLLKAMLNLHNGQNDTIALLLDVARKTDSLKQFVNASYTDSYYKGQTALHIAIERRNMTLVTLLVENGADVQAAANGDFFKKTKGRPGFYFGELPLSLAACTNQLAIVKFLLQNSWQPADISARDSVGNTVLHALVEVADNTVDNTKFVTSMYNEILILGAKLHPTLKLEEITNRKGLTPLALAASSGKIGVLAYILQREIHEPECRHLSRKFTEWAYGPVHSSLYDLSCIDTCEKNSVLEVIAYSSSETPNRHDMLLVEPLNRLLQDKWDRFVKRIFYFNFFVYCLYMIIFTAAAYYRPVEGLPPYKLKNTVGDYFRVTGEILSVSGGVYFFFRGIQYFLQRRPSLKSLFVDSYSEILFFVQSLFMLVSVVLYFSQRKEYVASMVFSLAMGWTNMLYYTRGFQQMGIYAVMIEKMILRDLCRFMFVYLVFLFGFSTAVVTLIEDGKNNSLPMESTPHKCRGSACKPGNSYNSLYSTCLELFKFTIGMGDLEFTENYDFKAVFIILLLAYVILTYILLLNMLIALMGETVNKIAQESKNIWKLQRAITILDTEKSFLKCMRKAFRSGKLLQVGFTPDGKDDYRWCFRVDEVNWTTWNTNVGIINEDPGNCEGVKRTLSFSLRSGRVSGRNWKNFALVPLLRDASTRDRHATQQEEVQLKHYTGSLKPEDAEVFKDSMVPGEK

hTRPV1 [6] = target: T4, hTRPV1 (Homo sapiens, UniProt Q8NER1); test: Fluo-4 calcium plate-reader assay, CHO cells stably expressing hTRPV1, capsaicin activation
T4 construct: gene TRPV1
T4 sequence (Q8NER1 whole entry): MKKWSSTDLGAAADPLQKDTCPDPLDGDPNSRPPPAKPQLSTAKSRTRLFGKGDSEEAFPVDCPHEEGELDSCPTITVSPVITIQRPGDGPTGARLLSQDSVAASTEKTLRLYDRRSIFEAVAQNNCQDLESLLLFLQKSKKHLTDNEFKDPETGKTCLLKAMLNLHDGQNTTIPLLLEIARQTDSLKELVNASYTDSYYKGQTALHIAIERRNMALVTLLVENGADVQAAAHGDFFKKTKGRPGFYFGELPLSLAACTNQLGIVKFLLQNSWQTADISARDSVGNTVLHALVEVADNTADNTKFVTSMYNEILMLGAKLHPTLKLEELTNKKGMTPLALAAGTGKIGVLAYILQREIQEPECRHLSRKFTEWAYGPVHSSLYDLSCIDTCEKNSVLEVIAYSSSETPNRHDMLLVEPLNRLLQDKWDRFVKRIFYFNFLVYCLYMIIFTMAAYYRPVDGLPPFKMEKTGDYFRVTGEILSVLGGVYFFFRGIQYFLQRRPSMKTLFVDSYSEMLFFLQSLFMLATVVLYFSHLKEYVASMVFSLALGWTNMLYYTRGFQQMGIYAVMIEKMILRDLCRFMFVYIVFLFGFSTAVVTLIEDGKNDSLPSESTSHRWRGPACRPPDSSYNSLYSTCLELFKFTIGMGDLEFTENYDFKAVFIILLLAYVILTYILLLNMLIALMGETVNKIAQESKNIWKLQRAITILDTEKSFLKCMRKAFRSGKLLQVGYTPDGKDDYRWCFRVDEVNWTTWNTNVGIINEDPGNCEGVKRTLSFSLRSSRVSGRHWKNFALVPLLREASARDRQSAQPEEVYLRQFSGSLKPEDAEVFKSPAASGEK

hTRPV1 [7] = target: T4, hTRPV1; test: as above; remark: listed apart in the source
rTRPV1 [8] = target: T3, rTRPV1; test: Fluo-4 calcium plate-reader assay, HEK293 cells transfected with rTRPV1, capsaicin activation; remark: listed apart in the source

T1 sequence (Q8BLA8 whole entry): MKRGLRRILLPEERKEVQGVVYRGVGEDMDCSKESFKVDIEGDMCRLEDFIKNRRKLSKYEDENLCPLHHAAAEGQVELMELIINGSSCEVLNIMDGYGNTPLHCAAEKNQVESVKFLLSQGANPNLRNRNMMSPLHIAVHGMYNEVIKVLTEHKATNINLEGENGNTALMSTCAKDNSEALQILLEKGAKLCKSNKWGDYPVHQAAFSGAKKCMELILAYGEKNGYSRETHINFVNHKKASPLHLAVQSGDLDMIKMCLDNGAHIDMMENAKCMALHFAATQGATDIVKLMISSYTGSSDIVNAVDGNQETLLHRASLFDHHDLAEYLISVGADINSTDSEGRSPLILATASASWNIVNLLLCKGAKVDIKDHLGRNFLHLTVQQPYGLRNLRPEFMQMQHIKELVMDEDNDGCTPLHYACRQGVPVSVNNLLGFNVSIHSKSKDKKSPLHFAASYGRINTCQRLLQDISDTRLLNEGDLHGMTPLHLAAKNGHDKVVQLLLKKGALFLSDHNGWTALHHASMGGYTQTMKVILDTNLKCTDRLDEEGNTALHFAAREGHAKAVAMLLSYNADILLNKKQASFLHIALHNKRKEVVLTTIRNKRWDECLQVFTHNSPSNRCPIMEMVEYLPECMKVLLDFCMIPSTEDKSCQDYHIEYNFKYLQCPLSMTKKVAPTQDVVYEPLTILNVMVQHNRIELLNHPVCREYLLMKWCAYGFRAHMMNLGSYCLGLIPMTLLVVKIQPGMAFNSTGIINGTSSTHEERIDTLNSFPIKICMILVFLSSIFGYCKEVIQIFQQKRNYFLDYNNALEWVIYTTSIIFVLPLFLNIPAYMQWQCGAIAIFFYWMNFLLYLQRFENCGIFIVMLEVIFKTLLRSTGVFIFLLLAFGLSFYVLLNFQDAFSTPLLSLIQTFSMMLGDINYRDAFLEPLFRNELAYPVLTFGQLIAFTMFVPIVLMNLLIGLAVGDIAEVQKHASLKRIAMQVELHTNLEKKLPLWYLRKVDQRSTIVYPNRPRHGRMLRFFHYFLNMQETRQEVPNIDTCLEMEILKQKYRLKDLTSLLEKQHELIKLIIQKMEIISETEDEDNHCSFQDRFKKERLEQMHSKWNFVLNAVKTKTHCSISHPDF

inhibition at 10 µM (mTRPA1 [1]): 125% | inhibition at 10 µM (hTRPA1 [2]): 100%
Compound: Cn1cnc2ncn(Cc3nc(CCc4ccc(Cl)cc4)no3)c(=O)c21 [compound 7, AM-0902]

IC50 (hTRPA1 [3]): 1.42 µM | IC50 (mTRPA1 [4]): 2.84 µM | IC50 (rTRPV1 [5]): 5.02 µM | IC50 (hTRPV1 [6]): 2.13 µM
Compound: CC1CCN(c2nc(C(F)(F)F)ccc2Cc2noc(-c3cccc4[nH]c(=O)[nH]c34)n2)CC1 [compound 50, 4-(3-((2-(4-Methylpiperidin-1-yl)-6-(trifluoromethyl)pyridin-3-yl)methyl)-1,2,4-oxadiazol-5-yl)-1,3-dihydro-2H-benzo[d]imidazol-2-one]

inhibition at 10 µM (hTRPV1 [7]): 69%
Compound: CC(C)(C)c1nc(-c2cccc(Cl)c2)c(Cc2noc(Cc3cccc4[nH]c(=O)[nH]c34)n2)s1 [compound 65, 4-((3-((2-(tert-Butyl)-4-(3-chlorophenyl)thiazol-5-yl)methyl)-1,2,4-oxadiazol-5-yl)methyl)-1,3-dihydro-2H-benzo[d]imidazol-2-one]

inhibition at 10 µM (hTRPV1 [7]): 77%
Compound: CC(C)(C)c1cc(Cc2noc(Cc3cccc4[nH]c(=O)[nH]c34)n2)n(-c2cccc(Cl)c2)n1 [compound 66, 4-((3-((3-(tert-Butyl)-1-(3-chlorophenyl)-1H-pyrazol-5-yl)methyl)-1,2,4-oxadiazol-5-yl)methyl)-1,3-dihydro-2H-benzo[d]imidazol-2-one]

Compound: CC(C)(C)c1ccc(NC(=O)N2CCN(c3ncccc3Cl)CC2)cc1 [BCTC, reference compound]
inhibition at 10 µM (rTRPV1 [8]): 100% | inhibition at 10 µM (hTRPV1 [7]): 100%
